# Measured values reported in patent publication US20230382915A1, “GCN2 AND PERK KINASE INHIBITORS AND METHODS OF USE THEREOF” (Deciphera Pharmaceuticals, LLC, priority 2021, published 2023).
# Experiments:
# [1] = system: HT-1080 solid tumor spheroids; experiment: Spheroid proliferation assay, HT-1080; assay type: cell-based; details: Homo sapiens, HT-1080, 120 h; 5 days, FIG. 11C; read-out: inhibition of cell proliferation IC50, single agent
# Method: Non Small Cell Lung Cancer (NSCLC) cell lines H358 (catalog #CRL-5807) and H2030 (catalog #CRL-5914), and fibrosarcoma line HT-1080 (catalog […]) were obtained from the American Type Culture Collect (ATTC, Manassas, VA). Cells were grown in RPMI-1640 medium supplemented with 10% heat-inactivated fetal bovine serum and 1% Penicillin/Streptomycin/L-Glutamine (Invitrogen, Carlsbad, CA) at 37° C., 5% CO2, and 95% humidity and maintained at 50-80% confluency until use. 500-1000 cells were plated in 96-well ultra-low attachment plates (Corning, Glendale, AZ) with complete growth media at 80 μL/well and incubated overnight at 37° C., 5% CO2, and 95% humidity to form spheroids. The next day, serial dilutions of test compounds were prepared in complete growth media and 20 μL/well media containing compound titers was added to spheroids in triplicate. Spheroids were then incubated with test compounds for 5 days under the same conditions. At the end of the incubation, spheroids were lysed with 100 μL/well CellTiter-Glo 3D Viability Assay (Promega, Madison, WI) and luminescence was detected using Synergy2 or equivalent reader (Biotek, Winooski, VT). Data was analyzed using GraphPad Prism software (GraphPad, San Diego, CA) to calculate IC50 values.
# [2] = system: phospho-GCN2 (Thr899) in HCT116 colorectal cancer cells; experiment: HCT116 amino acid starved (-AA) phospho-GCN2 Western blot; assay type: cell-based; details: Homo sapiens, HCT-116, 4 h, read-out: HCT116 -AA pGCN2 Western Blot
# Method: HCT116 colorectal cancer cells (catalog #CCL-247) were obtained from the American Type Culture Collect (ATTC, Manassas, VA). Briefly, cells were grown in RPMI 1640 supplemented with 10% heat inactivated fetal bovine serum (Invitrogen, Carlsbad, CA) and 1% Penicillin/Streptomycin/L-Glutamine at 37° C., 5% CO2, and 95% humidity. Cells were expanded until reaching 70-95% confluency at which point they were subcultured or harvested for assay use. Cells were seeded in 12-well culture plate at five hundred thousand cells per well in 1 mL complete growth medium and incubated overnight at 37° C., 5% CO2, and 95% humidity. The next day each well was replaced with 1 mL Earle's Balanced Salt Solution (EBSS, Invitrogen, Carlsbad, CA) supplemented with 10% Dialyzed Fetal Bovine Serum, 5.5 mM Glucose, 1% Penicillin/Streptomycin and 1% Vitamin solution (thermo #11120052). A serial dilution of test compound was dispensed into well. Plates were incubated for 4 h at 37° C., 5% CO2, and 95% humidity. […] Western blot was performed on each lysate to quantify phospho-GCN2 (Thr899), total GCN2, ATF4 and beta-Actin. […] Data were analyzed using GraphPad Prism software (GraphPad, San Diego, CA) to calculate IC50 values.
# [3] = target: PERK enzyme (Homo sapiens (Human), UniProt Q9NZJ5); experiment: Recombinant PERK activation assay; assay type: biochemical; details: FIG. 9B
# Method: To measure Compound 2-mediated PERK modulation, 200 nM PERK enzyme (Enzo, Farmingdale, NY) was incubated with Compound 2 titer for 30 min at RT. Following incubation, 200 nM substrate (GFP-eIF2α) (ThermoFisher Scientific, Waltham, MA) and 1 mM ATP was added to the mixture and incubated for 60 min at RT. Reaction was stopped by the addition of 10 mM EDTA and phosphorylated eiF2a substrate was detected using 2 nM LanthaScreen Tb-anti-peIF2α (pSer52) antibody (ThermoFisher Scientific, Waltham, MA) then incubated in the dark. After a 60 min incubation at room temperature, TR-FRET was monitored using an excitation wavelength of 340 nm and emission wavelengths of 490 nm and 520 nm.
# [4] = system: ATF4 target genes in H929 multiple myeloma cells; experiment: H929 UPR/ISR target genes quantitative RT-PCR; assay type: cell-based
# Method: H929 multiple myeloma cells (catalog #CRL-9068) multiple myeloma cells were obtained from the American Type Culture Collection (ATTC, Manassas, VA). Cells were grown in RPMI-1640 medium supplemented with 20% heat-inactivated fetal bovine serum (catalog #A3840002, ThermoFisher Scientific, Waltham, MA), 1% Penicillin/Streptomycin/L-Glutamine (catalog #10378016, ThermoFisher Scientific, Waltham, MA), and 0.05 mM 2-mercaptoethanol (catalog #21985-023, ThermoFisher Scientific, Waltham, MA) at 37° C., 5% CO2, and 95% humidity. Cells were expanded until reaching 70-95% confluency at which point they were subcultured or harvested for assay use. Cells were seeded in 6-well culture plate at 3.0×10^6 cells per well in 2 mL complete growth medium and incubated with indicated concentrations of Compound 2 at 37° C., 5% CO2, and 95% humidity for 4 h. At the end of the incubation, cells were washed with PBS (Sigma) and RNA was extracted using RNeasy® Plus Kits (Qiagen, Germantown, MD). cDNA was synthesized using the High-Capacity cDNA Reverse Transcription Kit (Applied Biosciences, Beverly Hills, CA), and quantitative PCR was performed on a QuantStudio 3 (Applied Biosciences) using TaqMan Assays (Table 1, Thermo) and TaqMan Fast Advanced Master Mix (Thermo) according to manufacturer's specifications.
# PERK enzyme, sequence (Q9NZJ5 30-1116): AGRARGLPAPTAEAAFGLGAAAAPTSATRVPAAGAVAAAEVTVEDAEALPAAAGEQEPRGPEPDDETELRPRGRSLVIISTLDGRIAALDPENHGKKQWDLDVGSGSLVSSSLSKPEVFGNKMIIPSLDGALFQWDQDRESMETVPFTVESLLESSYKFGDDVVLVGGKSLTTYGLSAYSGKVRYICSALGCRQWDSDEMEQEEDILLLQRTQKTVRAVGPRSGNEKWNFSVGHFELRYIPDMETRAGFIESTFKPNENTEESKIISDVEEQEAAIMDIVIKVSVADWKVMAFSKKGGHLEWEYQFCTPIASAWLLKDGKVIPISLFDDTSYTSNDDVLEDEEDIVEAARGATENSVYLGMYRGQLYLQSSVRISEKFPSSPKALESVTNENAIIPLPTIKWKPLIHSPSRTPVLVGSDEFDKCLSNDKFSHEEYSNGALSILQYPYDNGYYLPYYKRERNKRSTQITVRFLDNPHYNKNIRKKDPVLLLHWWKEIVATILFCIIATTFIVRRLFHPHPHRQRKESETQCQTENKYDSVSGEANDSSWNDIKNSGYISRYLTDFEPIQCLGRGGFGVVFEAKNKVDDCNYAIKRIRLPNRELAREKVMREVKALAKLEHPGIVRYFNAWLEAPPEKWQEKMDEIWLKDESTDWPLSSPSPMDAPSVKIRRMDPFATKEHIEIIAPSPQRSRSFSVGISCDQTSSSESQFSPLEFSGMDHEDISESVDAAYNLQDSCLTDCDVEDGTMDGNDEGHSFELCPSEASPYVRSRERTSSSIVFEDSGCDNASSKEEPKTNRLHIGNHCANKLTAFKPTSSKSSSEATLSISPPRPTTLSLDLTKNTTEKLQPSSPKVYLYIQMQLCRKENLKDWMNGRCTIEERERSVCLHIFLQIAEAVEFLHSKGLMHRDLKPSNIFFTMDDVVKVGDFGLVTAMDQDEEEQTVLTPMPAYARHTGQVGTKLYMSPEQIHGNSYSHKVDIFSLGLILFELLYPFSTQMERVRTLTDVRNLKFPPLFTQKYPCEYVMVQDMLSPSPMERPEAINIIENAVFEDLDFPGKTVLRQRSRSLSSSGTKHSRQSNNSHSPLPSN
structure (smiles),measurement,setting,value
"Cn1cc(-c2cccc(NS(=O)(=O)c3cc(Cl)cc(CO)c3Cl)c2F)c2c(N)ncnc21 [Example 2, N-(3-(4-amino-7-methyl-7H-pyrrolo[2,3-d]pyrimidin-5-yl)-2-fluorophenyl)-2,5-dichloro-3-(hydroxymethyl)benzenesulfonamide]",IC50,[1],12 nM
same,IC50,[2],≤ 100 nM
same,concentrations at which PERK enzyme is activated,[3],0.05 to 6 nM
same,concentrations at which recombinant PERK activity is inhibited,[3],above 3 μM
same,"activation of PERK enzyme, % of control",[3]; at 0.05-6 nM,up to 250 % of control
same,maximum stimulation for ATF4 (gene expression),"[4]; 4 h, fold change over DMSO",~3 folds
same,maximum stimulation for CHOP (gene expression),"[4]; 4 h, fold change over DMSO",~10 folds
same,maximum stimulation for GADD34 (gene expression),"[4]; 4 h, fold change over DMSO",~3 folds
same,maximum stimulation for GPT2 (gene expression),"[4]; 4 h, fold change over DMSO",~3
same,maximum stimulation for VEGFA (gene expression),"[4]; 4 h, fold change over DMSO",~2 folds
same,concentrations at which ATF4 target gene expression reverted to basal levels,"[4]; FIG. 4, inhibitory phase",≥ 370 nM
